Results taken from ChEMBL document CHEMBL5241111, “Non-steroidal anti-inflammatory drugs: recent advances in the use of synthetic COX-2 inhibitors” (RSC Med Chem, 2022).
Blank lines part the entries; values can stand above or below the compound they belong to.

Columns and labels:
[1] = molecular target: COX-1/COX-2 (Homo sapiens) (UniProt P35354+P23219); assay: Selectivity index, ratio of IC50 for inhibition of COX-1 (unknown origin) to IC50 for inhibition of COX-2 (unknown origin); type: protein assay
[2] = molecular target: T1, Prostaglandin G/H synthase 2 (Homo sapiens, UniProt P35354); assay: Inhibition of COX-2 (unknown origin)
T1 sequence (P35354 whole entry): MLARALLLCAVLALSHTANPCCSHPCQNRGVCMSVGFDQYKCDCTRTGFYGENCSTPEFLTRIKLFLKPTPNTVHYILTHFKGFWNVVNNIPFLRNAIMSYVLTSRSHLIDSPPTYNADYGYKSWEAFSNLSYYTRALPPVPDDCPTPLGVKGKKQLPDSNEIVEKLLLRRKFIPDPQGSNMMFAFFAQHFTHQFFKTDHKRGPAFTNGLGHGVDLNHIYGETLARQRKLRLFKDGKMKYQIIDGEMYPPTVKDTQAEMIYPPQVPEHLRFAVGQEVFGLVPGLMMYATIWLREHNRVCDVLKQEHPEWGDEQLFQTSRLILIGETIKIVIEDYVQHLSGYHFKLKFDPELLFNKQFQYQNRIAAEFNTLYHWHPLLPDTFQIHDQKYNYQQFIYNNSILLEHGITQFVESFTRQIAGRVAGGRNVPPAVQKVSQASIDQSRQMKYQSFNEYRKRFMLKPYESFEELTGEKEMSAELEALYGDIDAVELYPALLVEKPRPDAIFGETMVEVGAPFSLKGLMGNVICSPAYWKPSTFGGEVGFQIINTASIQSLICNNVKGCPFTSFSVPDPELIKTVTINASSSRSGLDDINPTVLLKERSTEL

[3] = molecular target: T2, Polyunsaturated fatty acid 5-lipoxygenase (Homo sapiens, UniProt P09917); assay: Inhibition of 5-LOX (unknown origin) using linoleic acid as substrate preincubated for 5 mins followed by substrate addition by absorbance based analysis
T2 sequence (P09917 whole entry): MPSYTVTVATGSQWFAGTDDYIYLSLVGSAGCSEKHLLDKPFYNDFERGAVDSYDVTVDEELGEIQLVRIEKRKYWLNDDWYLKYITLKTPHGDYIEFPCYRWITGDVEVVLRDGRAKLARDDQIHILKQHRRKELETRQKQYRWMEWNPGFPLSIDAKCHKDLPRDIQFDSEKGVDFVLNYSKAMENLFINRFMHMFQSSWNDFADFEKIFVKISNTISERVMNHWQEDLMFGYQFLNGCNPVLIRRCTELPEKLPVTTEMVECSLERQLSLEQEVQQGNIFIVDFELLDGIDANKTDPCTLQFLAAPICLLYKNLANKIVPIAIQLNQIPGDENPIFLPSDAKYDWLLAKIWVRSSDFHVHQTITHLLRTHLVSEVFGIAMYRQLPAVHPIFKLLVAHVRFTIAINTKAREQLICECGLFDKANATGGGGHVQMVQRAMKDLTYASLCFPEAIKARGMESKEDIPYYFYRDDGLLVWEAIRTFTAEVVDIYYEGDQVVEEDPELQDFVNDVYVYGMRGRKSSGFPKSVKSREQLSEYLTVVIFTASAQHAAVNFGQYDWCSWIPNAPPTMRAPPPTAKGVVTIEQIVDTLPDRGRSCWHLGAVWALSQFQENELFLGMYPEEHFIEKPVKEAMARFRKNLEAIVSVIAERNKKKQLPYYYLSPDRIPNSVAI

[4] = molecular target: T3, Polyunsaturated fatty acid lipoxygenase ALOX15 (Homo sapiens, UniProt P16050); assay: Inhibition of 15-LOX (unknown origin)
T3 sequence (P16050 whole entry): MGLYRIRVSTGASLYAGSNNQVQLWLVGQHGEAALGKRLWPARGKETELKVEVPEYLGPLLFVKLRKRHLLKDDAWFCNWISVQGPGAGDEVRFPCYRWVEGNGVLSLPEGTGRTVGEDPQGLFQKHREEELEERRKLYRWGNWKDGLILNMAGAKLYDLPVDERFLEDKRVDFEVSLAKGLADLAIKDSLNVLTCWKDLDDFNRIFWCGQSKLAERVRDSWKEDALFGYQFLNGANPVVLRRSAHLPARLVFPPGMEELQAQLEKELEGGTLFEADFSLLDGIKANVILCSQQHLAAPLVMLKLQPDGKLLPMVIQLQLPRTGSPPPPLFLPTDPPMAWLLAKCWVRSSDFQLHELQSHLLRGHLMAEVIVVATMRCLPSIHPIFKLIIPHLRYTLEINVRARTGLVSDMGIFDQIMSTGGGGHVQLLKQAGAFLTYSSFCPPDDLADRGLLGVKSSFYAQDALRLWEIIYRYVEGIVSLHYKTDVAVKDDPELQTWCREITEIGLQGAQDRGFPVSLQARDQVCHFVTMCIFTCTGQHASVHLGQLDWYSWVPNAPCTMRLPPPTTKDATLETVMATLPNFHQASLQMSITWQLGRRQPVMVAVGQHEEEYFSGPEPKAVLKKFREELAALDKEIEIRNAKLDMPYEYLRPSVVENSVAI

[5] = molecular target: T1, Prostaglandin G/H synthase 2; assay: Inhibition of COX-2 (unknown origin) by colorimetric assay
[6] = molecular target: T4, Prostaglandin G/H synthase 2 (Homo sapiens) (UniProt P35354); conditions: dose 2-10 nM, time 1.0 min
T4 sequence (whole entry): T1 sequence (P35354 whole entry)

Ratio IC50 [1]: 1.95 | IC50 [2]: 2610 nM
SMILES: Cc1c(C(=O)/C=C/c2ccccc2)nnn1-c1ccc(S(N)(=O)=O)cc1

IC50 [3]: 380 nM
SMILES: O=C(c1cccs1)c1sc(N2CCOCC2)nc1-c1ccc(C(F)(F)F)cc1

IC50 [4]: 15600 nM
SMILES: CC(c1cc2ccccc2s1)N(O)C(N)=O (stereo not given) [ZILEUTON]

IC50 [4]: 2540 nM
SMILES: O=C1CS/C(=N/c2nnc(-c3ccc(O)cc3)s2)N1

IC50 [3]: 380 nM
SMILES: O=C(/N=c1\scc(-c2ccc(F)cc2)n1-c1ccccc1)c1cccs1

IC50 [4]: 2540 nM
SMILES: Cc1nnc(/N=C2\NC(=O)CS2)s1

IC50 [4]: 3360 nM
SMILES: Cc1nnc(/N=C2\NC(=O)/C(=C/C=C/c3ccccc3)S2)s1

IC50 [3]: 380 nM
SMILES: O=C(c1cccs1)c1sc(Nc2ccccc2)nc1-c1ccc(F)cc1

IC50 [3]: 380 nM
SMILES: N#Cc1ccc(-c2nc(N(c3ccccc3)c3ccccc3)sc2C(=O)c2cccs2)cc1

IC50 [4]: 3110 nM
SMILES: Cc1nnc(/N=C2\NC(=O)/C(=C/c3ccc(Br)cc3)S2)s1

IC50 [4]: 3110 nM
SMILES: COc1ccc(/C=C2\S/C(=N/c3nnc(C)s3)NC2=O)cc1

IC50 [4]: 3110 nM
SMILES: Cc1nnc(/N=C2\NC(=O)/C(=C/c3ccc(O)cc3)S2)s1

IC50 [3]: 380 nM
SMILES: O=C(/N=c1\scc(-c2ccc([N+](=O)[O-])cc2)n1-c1ccccc1)c1cccs1

IC50 [2]: 5270 nM
SMILES: CC(C)=CC[C@H]1C[C@@H]2C[C@@H]3[C@@H](C[C@]4(C)C(C)(C)OC[C@]34C)C(=O)[C@](C(=O)c3ccccc3)(C1=O)C2(C)C

IC50 [3]: 380 nM
SMILES: O=C(/N=c1\scc(-c2ccc(C(F)(F)F)cc2)n1-c1ccccc1)c1cccs1

IC50 [5]: 4750 nM
SMILES: CCCCNc1cc(C(=O)n2nc(C)cc2C)cc(S(N)(=O)=O)c1Oc1ccccc1

IC50 [4]: 3110 nM
SMILES: Cc1nnc(/N=C2\NC(=O)/C(=C/c3ccc(N(C)C)cc3)S2)s1

IC50 [3]: 380 nM
SMILES: O=C(c1cccs1)c1sc(N2CCOCC2)nc1-c1ccc([N+](=O)[O-])cc1

IC50 [5]: 1520 nM
SMILES: C=CCn1c(-c2ccc(Cl)cc2)cs/c1=N\NC(=O)c1cc(NCCCC)c(Oc2ccccc2)c(S(N)(=O)=O)c1

IC50 [4]: 2540 nM
SMILES: O=C1CS/C(=N/c2nnc(-c3ccc(Br)cc3)s2)N1

IC50 [3]: 380 nM
SMILES: N#Cc1ccc(-c2cs/c(=N\C(=O)c3cccs3)n2-c2ccccc2)cc1

inhibition [6]: < 98%
SMILES: Cc1sc(/C=C2\CN(C)CC3C2=NN(c2ccccc2)C3c2cc(F)c(C)s2)cc1F (stereo not given)

IC50 [3]: 380 nM
SMILES: O=C(c1cccs1)c1sc(N(c2ccccc2)c2ccccc2)nc1-c1ccc(C(F)(F)F)cc1

inhibition [6]: < 98%
SMILES: CN1C/C(=C\c2ccc([N+](=O)[O-])s2)C2=NN(c3ccccc3)C(c3ccc([N+](=O)[O-])s3)C2C1 (stereo not given)

IC50 [5]: 1520 nM
SMILES: CCCCNc1cc(C(=O)N/N=c2\scc(-c3ccc(C)cc3)n2-c2ccc(Br)cc2)cc(S(N)(=O)=O)c1Oc1ccccc1

IC50 [4]: 3360 nM
SMILES: Cc1nnc(/N=C2\NC(=O)/C(=C/c3ccsc3)S2)s1

IC50 [4]: 3110 nM
SMILES: Cc1nnc(/N=C2\NC(=O)/C(=C/c3ccc(Cl)cc3)S2)s1

IC50 [5]: 1520 nM
SMILES: C=CCn1c(-c2ccc(C)cc2)cs/c1=N\NC(=O)c1cc(NCCCC)c(Oc2ccccc2)c(S(N)(=O)=O)c1

IC50 [3]: 380 nM
SMILES: O=C(/N=c1/scc(-c2ccccc2)n1-c1ccccc1)c1cccs1

IC50 [3]: 380 nM
SMILES: O=C(c1cccs1)c1sc(N(c2ccccc2)c2ccccc2)nc1-c1ccc(F)cc1

IC50 [2]: 8320 nM
SMILES: CCC(C)C(=O)[C@H]1C(=O)[C@@]2(CC=C(C)C)C[C@H](C[C@H]3[C@@H](C[C@H](C(C)(C)O)C3(C)C)C2=O)C1(C)C (stereo not given in full)

inhibition [6]: < 98%
SMILES: Cc1sc(/C=C2\CN(C)CC3C2=NN(c2ccccc2)C3c2cc(Br)c(C)s2)cc1Br (stereo not given)

inhibition [6]: < 98%
SMILES: CCc1ccc(/C=C2\CN(C)CC3C2=NN(c2ccccc2)C3c2ccc(CC)s2)s1 (stereo not given)

IC50 [3]: 380 nM
SMILES: O=C(c1cccs1)c1sc(N(c2ccccc2)c2ccccc2)nc1-c1ccccc1

IC50 [5]: 1520 nM
SMILES: C=CCn1c(-c2ccc(OC)cc2)cs/c1=N\NC(=O)c1cc(NCCCC)c(Oc2ccccc2)c(S(N)(=O)=O)c1

inhibition [6]: < 98%
SMILES: CN1C/C(=C\c2cccs2)C2=NN(c3ccccc3)C(c3cccs3)C2C1 (stereo not given)

IC50 [3]: 380 nM
SMILES: Cc1ccc(-c2nc(N(c3ccccc3)c3ccccc3)sc2C(=O)c2cccs2)cc1

inhibition [6]: < 98%
SMILES: CN1C/C(=C\c2ccc(F)s2)C2=NN(c3ccccc3)C(c3ccc(F)s3)C2C1 (stereo not given)

IC50 [5]: 280 nM
SMILES: CCCCNc1cc(-c2n[nH]c(=S)n2-c2ccccc2)cc(S(N)(=O)=O)c1Oc1ccccc1

inhibition [6]: < 98%
SMILES: CN1C/C(=C\c2ccc(O)s2)C2=NN(c3ccccc3)C(c3ccc(O)s3)C2C1 (stereo not given)

IC50 [5]: 1520 nM
SMILES: CCCCNc1cc(C(=O)N/N=c2\scc(-c3ccc(OC)cc3)n2-c2ccccc2)cc(S(N)(=O)=O)c1Oc1ccccc1

IC50 [5]: 5110 nM
SMILES: CCCCNc1cc(C(=O)N2N=C(C)CC2=O)cc(S(N)(=O)=O)c1Oc1ccccc1

IC50 [5]: 4590 nM
SMILES: C=CCc1ccc(-n2c(-c3cc(NCCCC)c(Oc4ccccc4)c(S(N)(=O)=O)c3)n[nH]c2=S)cc1

inhibition [6]: < 98%
SMILES: Cc1ccc(/C=C2\CN(C)CC3C2=NN(c2ccccc2)C3c2ccc(C)s2)s1 (stereo not given)

IC50 [4]: 3110 nM
SMILES: Cc1nnc(/N=C2\NC(=O)/C(=C/c3ccc(F)cc3)S2)s1

IC50 [3]: 380 nM
SMILES: Cc1ccc(-c2nc(N3CCOCC3)sc2C(=O)c2cccs2)cc1

IC50 [4]: 3360 nM
SMILES: Cc1nnc(/N=C2\NC(=O)/C(=C/C3CCCCC3)S2)s1

IC50 [5]: 5730 nM
SMILES: CCCCNc1cc(-c2n[nH]c(=S)o2)cc(S(N)(=O)=O)c1Oc1ccccc1

IC50 [5]: 1520 nM
SMILES: CCCCNc1cc(C(=O)N/N=c2\scc(-c3ccc(Cl)cc3)n2-c2ccccc2)cc(S(N)(=O)=O)c1Oc1ccccc1

IC50 [5]: 1520 nM
SMILES: CCCCNc1cc(C(=O)N/N=c2\scc(-c3ccc(C)cc3)n2-c2ccccc2)cc(S(N)(=O)=O)c1Oc1ccccc1

IC50 [4]: 2540 nM
SMILES: O=C1CS/C(=N/c2nnc(-c3ccccc3O)s2)N1

IC50 [5]: 1520 nM
SMILES: CCCCNc1cc(C(=O)N/N=c2\scc(-c3ccc(Cl)cc3)n2-c2ccc(Br)cc2)cc(S(N)(=O)=O)c1Oc1ccccc1

inhibition [6]: < 98%
SMILES: CN1C/C(=C\c2ccc(Br)s2)C2=NN(c3ccccc3)C(c3ccc(Br)s3)C2C1 (stereo not given)

IC50 [3]: 380 nM
SMILES: O=C(c1cccs1)c1sc(N2CCOCC2)nc1-c1ccc(F)cc1

IC50 [3]: 380 nM
SMILES: N#Cc1ccc(-c2nc(N3CCOCC3)sc2C(=O)c2cccs2)cc1

inhibition [6]: < 98%
SMILES: Cc1csc(/C=C2\CN(C)CC3C2=NN(c2ccccc2)C3c2cc(C)cs2)c1 (stereo not given)

IC50 [4]: 3110 nM
SMILES: Cc1nnc(/N=C2\NC(=O)/C(=C/c3ccc(C(C)C)cc3)S2)s1

IC50 [3]: 380 nM
SMILES: Cc1ccc(-c2cs/c(=N\C(=O)c3cccs3)n2-c2ccccc2)cc1

IC50 [4]: 3360 nM
SMILES: Cc1nnc(/N=C2\NC(=O)/C(=C/c3cccnc3)S2)s1

IC50 [4]: 2540 nM
SMILES: Cc1ccc(-c2nnc(/N=C3\NC(=O)CS3)s2)cc1

IC50 [3]: 380 nM
SMILES: O=C(c1cccs1)c1sc(N2CCOCC2)nc1-c1ccccc1

IC50 [3]: 380 nM
SMILES: O=C(c1cccs1)c1sc(N(c2ccccc2)c2ccccc2)nc1-c1ccc([N+](=O)[O-])cc1

inhibition [6]: < 98%
SMILES: CN1C/C(=C\c2ccc(Cl)s2)C2=NN(c3ccccc3)C(c3ccc(Cl)s3)C2C1 (stereo not given)

IC50 [5]: 1520 nM
SMILES: CCCCNc1cc(C(=O)N/N=c2\scc(-c3ccc(OC)cc3)n2-c2ccc(Br)cc2)cc(S(N)(=O)=O)c1Oc1ccccc1
